{
  "source": "patent US20030139391A1",
  "about": "(priority 2000, published 2003)",
  "key": {"[1]": {"tested_on": "Patients diagnosed with Alzheimer's Disease", "experiment": "ADAS-cog/11 in 5-month slow-titration trial", "format": "in vivo, human", "excerpt": "(§1) Subjects in the Placebo group received 21 weeks (5 months) of placebo medication.\nAll patients were monitored throughout the study, with follow-up and cognitive evaluation at four weeks, three months and five months after the start of the study.\nThe ADAS consists of two parts—a cognitive subscale and a behavioral subscale. The behavioral subscale was not be used in this study. The cognitive subscale, the ADAS—cog-11, consisted of Word Recall and Word Recognition memory tests, Object and Finger Naming, Commands, Constructional Praxis, Ideational Praxis, Orientation, Remembering Test Instructions, Spoken language Ability, Comprehension of Spoken language and Word Finding Difficulty was the primary variable in this study.\nTo reduce variability due to circadian fluctuations in cognitive status the ADAS was done always at the same time of the day, preferably before noon. Only a trained ADAS rater performed the test. Ideally the ADAS rater was not involved in the treatment of the subject and should have no access to AE (adverse event) reporting.\nThe ADAS was performed at visits 1, 2, 3, 4 and 5 (screening, baseline, week 4, week 13 and month 5 or upon early discontinuation of trial medication intake). For word recall and word recognition two parallel wordlists, list A and list B were employed. List A was used at visits 1 and 3, List B at visits 2, 4, and 5 or upon early discontinuation of trial medication intake. For practical reasons the words for word recognition was presented only once. The total score of the 11 cognitive items on the original ADAS cognitive subscale (ADAS-cog/11, Range: 0-70) was recorded.\nFor continuous data, a two-way analysis of variance (ANOVA) model with treatment and investigator as factors were used to compare the treatment groups for the change from baseline data. The interaction between treatment and investigator was examined. The impact of the baseline score on change from baseline was evaluated. […] If the parametric methods were deemed inappropriate (normality assumption violated), nonparametric methods such as two-way ANOVA on ranked data, Van Elteren test, controlling for investigator, was used. Following ANOVA, Fisher's LSD procedure was used for pairwise comparisons between each galanthamine group and the placebo group. A linear contrast on the main effect for treatment was used to test the dose response relationship."}, "[2]": {"tested_on": "Patients diagnosed with Alzheimer's Disease", "experiment": "CIBIC-plus in 5-month slow-titration trial", "format": "in vivo, human", "experimental": "as §1\nThe CIBIC-plus score was a second primary variable. An independent, experienced and properly trained clinician provided a global impression of the subject's deterioration or improvement over the course of the trial, based on separate interviews with the subject and caregivers. If helpful, the CIBIC rater audiotaped or videotaped the baseline interview for future reference.\nThe CIBIC-plus was performed at visit 2, 3, 4, and 5 (baseline, week 4, week 13, and month 5 or upon early discontinuation of trial medication intake). Only a trained CIBIC rater performed the test.\nFor ordinal categorical variables such as the CIBIC-plus score, the Van Elteren test controlling for investigator was used for the between group comparison. For the nominal data (e.g., events rates), the Cochran-Mantel-Haenszel test for general association controlling for investigator was used. A linear contrast on the proportion of patients that stay the same or improve was used to test for increasing response with increasing dose."}, "patients": {"tested_on": "patients", "experiment": "ADAS-cog in earlier study with quicker titration", "format": "in vivo, human", "settings": "for ADAS-cog: Actual Drug Mean (SE): raw mean", "experimental": "An improvement in tolerability at this dose was seen, but this dose was suboptimal from an efficacy standpoint.\nStatistical analysis of the results of the ADAS-cog score is shown below in Table 7. […] This indicated a significant improvement of the patients' cognitive function at this dose level. The treatment with 36 mg/day in this study was terminated at an early point and thus there was insufficient information for a well defined comparison with the placebo."}, "[3]": {"settings": "in humans; cited from earlier work"}},
  "note": "Marks after values point to notes of the source that are not given here.",
  "data": [
    {"compound": "COc1ccc2c3c1O[C@H]1C[C@@H](O)C=C[C@@]31CCN(C)C2", "note": "[GAL, galantamine]", "values": [
      {"measurement": "Responders, ADAS-cog/11 change ≦ 0 points at Month 5: %", "setting": "[1]; 8 mg/day", "result": 46.5, "unit": "%"},
      {"measurement": "Responders, ADAS-cog/11 change ≦ 0 points at Month 5: n", "setting": "[1]; 8 mg/day", "result": 47},
      {"measurement": "Responders, ADAS-cog/11 change ≦ −4 points at Month 5: %", "setting": "[1]; 8 mg/day", "result": 25.7, "unit": "%"},
      {"measurement": "Responders, ADAS-cog/11 change ≦ −4 points at Month 5: n", "setting": "[1]; 8 mg/day", "result": 26},
      {"measurement": "Responders, ADAS-cog/11 change ≦ −7 points at Month 5: %", "setting": "[1]; 8 mg/day", "result": 13.9, "unit": "%"},
      {"measurement": "Responders, ADAS-cog/11 change ≦ −7 points at Month 5: n", "setting": "[1]; 8 mg/day", "result": 14},
      {"measurement": "Responders, ADAS-cog/11 change ≦ −10 points at Month 5: %", "setting": "[1]; 8 mg/day", "result": 5.9, "unit": "%"},
      {"measurement": "Responders, ADAS-cog/11 change ≦ −10 points at Month 5: n", "setting": "[1]; 8 mg/day", "result": 6},
      {"measurement": "Responders, ADAS-cog/11 change ≦ 0 points at Month 5: %", "setting": "[1]; 16 mg/day", "result": 65.4, "unit": "%"},
      {"measurement": "Responders, ADAS-cog/11 change ≦ 0 points at Month 5: n", "setting": "[1]; 16 mg/day", "result": 136},
      {"measurement": "Responders, ADAS-cog/11 change ≦ −4 points at Month 5: %", "setting": "[1]; 16 mg/day", "result": 35.6, "unit": "%"},
      {"measurement": "Responders, ADAS-cog/11 change ≦ −4 points at Month 5: n", "setting": "[1]; 16 mg/day", "result": 74},
      {"measurement": "Responders, ADAS-cog/11 change ≦ −7 points at Month 5: %", "setting": "[1]; 16 mg/day", "result": 15.9, "unit": "%"},
      {"measurement": "Responders, ADAS-cog/11 change ≦ −7 points at Month 5: n", "setting": "[1]; 16 mg/day", "result": 33},
      {"measurement": "Responders, ADAS-cog/11 change ≦ −10 points at Month 5: %", "setting": "[1]; 16 mg/day", "result": 7.2, "unit": "%"},
      {"measurement": "Responders, ADAS-cog/11 change ≦ −10 points at Month 5: n", "setting": "[1]; 16 mg/day", "result": 15},
      {"measurement": "Responders, ADAS-cog/11 change ≦ 0 points at Month 5: %", "setting": "[1]; 24 mg/day", "result": 64.9, "unit": "%"},
      {"measurement": "Responders, ADAS-cog/11 change ≦ 0 points at Month 5: n", "setting": "[1]; 24 mg/day", "result": 137},
      {"measurement": "Responders, ADAS-cog/11 change ≦ −4 points at Month 5: %", "setting": "[1]; 24 mg/day", "result": 37.0, "unit": "%"},
      {"measurement": "Responders, ADAS-cog/11 change ≦ −4 points at Month 5: n", "setting": "[1]; 24 mg/day", "result": 78},
      {"measurement": "Responders, ADAS-cog/11 change ≦ −7 points at Month 5: %", "setting": "[1]; 24 mg/day", "result": 22.3, "unit": "%"},
      {"measurement": "Responders, ADAS-cog/11 change ≦ −7 points at Month 5: n", "setting": "[1]; 24 mg/day", "result": 47},
      {"measurement": "Responders, ADAS-cog/11 change ≦ −10 points at Month 5: %", "setting": "[1]; 24 mg/day", "result": 10.4, "unit": "%"},
      {"measurement": "Responders, ADAS-cog/11 change ≦ −10 points at Month 5: n", "setting": "[1]; 24 mg/day", "result": 22},
      {"measurement": "Change from baseline in ADAS-cog/11 at Month 5, Mean (SE)", "setting": "[1]; LOCF, 8 mg/day, no titration", "result": "0.4 (0.52)▪"},
      {"measurement": "Change from baseline in ADAS-cog/11 at Month 5, Mean (SE)", "setting": "[1]; LOCF, 16 mg/day after 4-week titration", "result": "−1.4 (0.35)***^♭"},
      {"measurement": "Change from baseline in ADAS-cog/11 at Month 5, Mean (SE)", "setting": "[1]; LOCF, 24 mg/day after 8-week titration", "result": "−1.4 (0.39)***^♭"},
      {"measurement": "Change from baseline in ADAS-cog/11 at Month 5, Mean (SE)", "setting": "[1]; observed case, 8 mg/day, no titration", "result": "0.1 (0.58)*"},
      {"measurement": "Change from baseline in ADAS-cog/11 at Month 5, Mean (SE)", "setting": "[1]; observed case, 16 mg/day after 4-week titration", "result": "−1.5 (0.40)***^†"},
      {"measurement": "Change from baseline in ADAS-cog/11 at Month 5, Mean (SE)", "setting": "[1]; observed case, 24 mg/day after 8-week titration", "result": "−1.8 (0.44)***^†"},
      {"measurement": "CIBIC-plus at Month 5, Improved/no change: %", "setting": "[2]; LOCF, 8 mg/day", "result": 53, "unit": "%"},
      {"measurement": "CIBIC-plus at Month 5, Improved/no change: n", "setting": "[2]; LOCF, 8 mg/day", "result": 68},
      {"measurement": "CIBIC-plus at Month 5, Improved/no change: %", "setting": "[2]; LOCF, 16 mg/day", "result": 66, "unit": "%"},
      {"measurement": "CIBIC-plus at Month 5, Improved/no change: n", "setting": "[2]; LOCF, 16 mg/day", "result": 169},
      {"measurement": "CIBIC-plus at Month 5, Improved/no change: %", "setting": "[2]; LOCF, 24 mg/day", "result": 64, "unit": "%"},
      {"measurement": "CIBIC-plus at Month 5, Improved/no change: n", "setting": "[2]; LOCF, 24 mg/day", "result": 162},
      {"measurement": "CIBIC-plus at Month 5, Improved/no change: %", "setting": "[2]; observed case, 8 mg/day", "result": 51, "unit": "%"},
      {"measurement": "CIBIC-plus at Month 5, Improved/no change: n", "setting": "[2]; observed case, 8 mg/day", "result": 54},
      {"measurement": "CIBIC-plus at Month 5, Improved/no change: %", "setting": "[2]; observed case, 16 mg/day", "result": 68, "unit": "%"},
      {"measurement": "CIBIC-plus at Month 5, Improved/no change: n", "setting": "[2]; observed case, 16 mg/day", "result": 143},
      {"measurement": "CIBIC-plus at Month 5, Improved/no change: %", "setting": "[2]; observed case, 24 mg/day", "result": 64, "unit": "%"},
      {"measurement": "CIBIC-plus at Month 5, Improved/no change: n", "setting": "[2]; observed case, 24 mg/day", "result": 136},
      {"measurement": "ADAS-cog: Mean estimate GAL-Placebo Difference", "setting": "patients; 18 mg/day", "result": "−1.69"},
      {"measurement": "ADAS-cog: Z, measure of advantage of galantamine over placebo", "setting": "patients; 18 mg/day", "result": 9.9},
      {"measurement": "ADAS-cog: Actual Drug Mean (SE)", "setting": "patients; 18 mg/day", "result": "0.5 (0.70)"},
      {"measurement": "ADAS-cog: Mean estimate GAL-Placebo Difference", "setting": "patients; 24 mg/day", "result": "−3.34"},
      {"measurement": "ADAS-cog: Z, measure of advantage of galantamine over placebo", "setting": "patients; 24 mg/day", "result": 13.4},
      {"measurement": "ADAS-cog: Actual Drug Mean (SE)", "setting": "patients; 24 mg/day", "result": "0.7 (0.9)"},
      {"measurement": "ADAS-cog: Mean estimate GAL-Placebo Difference", "setting": "patients; 36 mg/day", "result": "−1.93"},
      {"measurement": "ADAS-cog: Z, measure of advantage of galantamine over placebo", "setting": "patients; 36 mg/day", "result": 7.8},
      {"measurement": "ADAS-cog: Actual Drug Mean (SE)", "setting": "patients; 36 mg/day", "result": "1.1 (0.9)"},
      {"measurement": "passing the blood-brain barrier", "setting": "[3]", "result": "capable of passing the blood-brain barrier"}
    ]}
  ]
}
